According to PMC7151106 (Pharmaceutics, 2020):

How the values were obtained:
[1] = tested on: T1, OAT1; experiment: Substrate specificity / uptake in HEK293-OAT1 cells; assay type: in vitro ADME; conditions: 5 min
T1 construct: host or cells: HEK293
Method: (§1) HEK293-mock cells and HEK293 cells overexpressing OAT1 and OAT3 transporters (HEK293-OAT1 and -OAT3, respectively) were seeded in poly-D-lysine-coated 24-well plates at a density of 4 × 10^5 cells/well and cultured for 24 h in DMEM supplemented with 10% FBS and 5 mM non-essential amino acids at 37 °C in 8% CO2 condition.
(§2) For each experiment, the growth medium was discarded after 24 h, and the attached cells were washed with pre-warmed HBSS and incubated with pre-warmed HBSS for 20 min at 37 °C. To confirm the functionality of OAT1 and OAT3, we measured the uptake of 0.1 µM [^3H]PAH and 0.1 µM [^3H]ES, representative substrates for OAT1 and OAT3, respectively, into in the HEK293-mock cells and HEK293-OAT1 and -OAT3 cells, respectively, for 5 min in the presence and absence of 20 µM probenecid, a typical inhibitor for both OAT1 and OAT3 [8, 9]. The cells were then washed three times with 500 μL of ice-cold HBSS immediately after placing the plates on ice. Subsequently, cells were lysed with 10% sodium dodecyl sulfate and mixed with Optiphase cocktail solution overnight. The radioactivity of the cell lysate was measured using a liquid scintillation counter (Microbeta 2; Perkin Elmer Inc., Boston, MA, USA).
(§3) For the concentration dependency in the uptake of DWP16001, the uptake of DWP16001 in a concentration range of 0.5–50 μM dissolved in HBSS was measured for 5 min at 37 °C in the mock cells and HEK293-OAT1 and -OAT3 cells, respectively. After 5 min, the cells were washed three times with 500 μL of ice-cold HBSS immediately after placing the plates on ice.
(§4) In the concentration-dependent uptake studies, the transporter-mediated uptake of DWP16001 was calculated by the subtraction of the transport rates of DWP16001 into the mock cells from those of the HEK293-OAT1 and -OAT3 cells. Kinetic parameters for the OAT1- and OAT3-mediated transport of DWP16001 were determined using the Michaelis-Menten equation [V = Vmax⋅S/(Km + S)] [10].

[2] = target: T2, SGLT2 (Homo sapiens, UniProt P31639); experiment: Time dependency of SGLT2 inhibition (preincubation) in CHO-SGLT2 cells; assay type: cell-based; conditions: pretreatment 0, 1, 2 h
T2 construct: host or cells: CHO
T2 sequence (P31639 1-672): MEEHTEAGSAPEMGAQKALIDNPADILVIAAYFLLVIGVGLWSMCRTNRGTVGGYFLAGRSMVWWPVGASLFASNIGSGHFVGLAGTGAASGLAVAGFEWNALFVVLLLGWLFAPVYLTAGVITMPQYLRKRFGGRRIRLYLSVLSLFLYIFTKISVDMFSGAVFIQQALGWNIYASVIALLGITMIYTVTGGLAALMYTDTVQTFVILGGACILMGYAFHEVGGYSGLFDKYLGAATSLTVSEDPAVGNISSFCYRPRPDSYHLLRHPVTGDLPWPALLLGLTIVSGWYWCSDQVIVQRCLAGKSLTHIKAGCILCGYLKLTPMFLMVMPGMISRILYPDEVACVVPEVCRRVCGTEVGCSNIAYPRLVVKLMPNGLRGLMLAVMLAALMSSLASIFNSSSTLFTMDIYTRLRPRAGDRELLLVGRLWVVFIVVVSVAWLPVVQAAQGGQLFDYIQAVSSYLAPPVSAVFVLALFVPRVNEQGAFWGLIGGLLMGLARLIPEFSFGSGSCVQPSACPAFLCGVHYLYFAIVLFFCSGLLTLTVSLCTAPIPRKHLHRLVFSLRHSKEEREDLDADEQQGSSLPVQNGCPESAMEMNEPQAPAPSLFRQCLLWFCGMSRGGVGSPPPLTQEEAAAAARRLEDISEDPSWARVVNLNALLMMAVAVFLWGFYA
Method: After 2 h of incubation, the radioactivity of the cell lysate was measured following the same sample preparation method described above.

[3] = target: T2, SGLT2; experiment: Recovery of SGLT2 activity after washout following 24 h exposure in CHO-SGLT2 cells; assay type: cell-based; conditions: 0.2–200 nM
Method: After 24 h, the RPMI1640 medium was replaced with pre-warmed fresh RPMI1640 medium and incubated for 1, 2, 3, 5, and 6 h, and proceeded another pre-incubation with Na^+-free buffer for 1 h. Then, after replacing Na^+-free buffer with Na^+ gradient buffer containing 10 µM [^14C]AMG, the uptake of [^14C]AMG into the CHO-SGLT2 cells was measured for 2 h. After 2 h of incubation, the radioactivity of the cell lysate was measured following the same sample preparation method described above.

[4] = tested on: T3, OAT3; experiment: Substrate specificity / uptake in HEK293-OAT3 cells; assay type: in vitro ADME; conditions: 5 min
T3 construct: host or cells: HEK293
Method: as §1, §2, §3, §4

[5] = target: T2, SGLT2; experiment: Mode of inhibition on SGLT2 (Dixon plots) in CHO-SGLT2 cells; assay type: cell-based; conditions: 1, 2.5, 5, 50 μM [14C]AMG
Method: The radioactivity of the cell lysate was measured following the same sample preparation method described above.

[6] = in vivo; conditions: ICR, mouse, po, 1 mg/kg
Method: (§5) An aliquot (30 µL) of each plasma sample was stored at −80 °C until the analysis. […] An aliquot (50 µL) of each kidney homogenate sample was stored at −80 °C until the analysis.
(§6) For the analysis of SGLT2 inhibitors, aliquots of plasma (30 µL) and kidney homogenate (50 µL) were added to 100 μL of aqueous solution of D4-DWP16001 (IS, 20 ng/mL), and vigorously mixed with 500 μL methyl tert-butyl ether (MTBE) for 15 min. After centrifugation at 16,000 g for 5 min, samples were kept for 1 h at −80 °C to make an aqueous layer freeze. An organic upper layer was transferred to a clean tube and evaporated to dryness under a gentle stream of nitrogen. Then, the dried extract was reconstituted in 150 µL of mobile phase, and a 3 µL aliquot of the reconstituent was injected into a liquid chromatography–tandem mass spectrometry (LC–MS/MS) system.
(§7) Pharmacokinetic parameters, such as the area under plasma concentration-time curve from zero to infinity (AUC), were calculated from plasma concentration vs time curves using non-compartment analysis with WinNonlin (version 5.1; Pharsights, Cary, NC, USA). The AUC ratios (i.e., ratios of kidney AUC to plasma AUC) were calculated by dividing the AUC of the three SGLT2 inhibitors in the kidney by the plasma AUC values of the three SGLT2 inhibitors.

[7] = physchem
[8] = design: method as in PMID 27430987; conditions: cited from earlier work
[9] = mouse, in vivo, po, 1 mg/kg
Method: as §5, §6, §7

[10] = target: T4, SGLT1 (Homo sapiens, UniProt P13866); experiment: Inhibition of [14C]AMG uptake in CHO-SGLT1 cells; assay type: cell-based; conditions: 10 μM [14C]AMG, 2 h
T4 construct: host or cells: CHO
T4 sequence (P13866 1-664): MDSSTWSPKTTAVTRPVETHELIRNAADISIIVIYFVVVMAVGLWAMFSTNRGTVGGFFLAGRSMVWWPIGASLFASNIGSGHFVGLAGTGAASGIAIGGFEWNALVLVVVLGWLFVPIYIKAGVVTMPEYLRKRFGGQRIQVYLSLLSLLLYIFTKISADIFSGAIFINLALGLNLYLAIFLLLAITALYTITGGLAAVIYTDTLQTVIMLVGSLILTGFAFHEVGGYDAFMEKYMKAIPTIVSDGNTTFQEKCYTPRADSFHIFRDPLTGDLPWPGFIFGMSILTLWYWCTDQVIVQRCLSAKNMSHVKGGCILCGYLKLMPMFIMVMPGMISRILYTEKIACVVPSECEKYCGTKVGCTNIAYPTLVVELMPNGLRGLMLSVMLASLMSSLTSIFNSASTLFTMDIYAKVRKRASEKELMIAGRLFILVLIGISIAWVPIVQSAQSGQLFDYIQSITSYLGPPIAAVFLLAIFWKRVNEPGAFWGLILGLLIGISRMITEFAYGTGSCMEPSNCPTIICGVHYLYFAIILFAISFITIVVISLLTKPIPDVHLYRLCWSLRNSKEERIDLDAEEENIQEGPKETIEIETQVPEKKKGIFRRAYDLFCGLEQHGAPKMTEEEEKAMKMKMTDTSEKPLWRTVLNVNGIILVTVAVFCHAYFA
Method: CHO cells overexpressing SGLT1 and SGLT2 cells (CHO-SGLT1 and -SGLT2) and CHO-mock cells were characterized as previously described. Cells were maintained in RPMI1640 medium supplemented with 10% fetal bovine serum and 200 µg/mL G418 at 37 °C in 5% CO2 conditions. CHO-SGLT1 and -SGLT2 cells were seeded at a density of 1 × 10^5 cells/well in 96-well plates. After 24 h, the growth medium was discarded from the cells, and the cells were washed with pre-warmed Na^+-free buffer (10 mM HEPES, 5 mM Tris, 140 mM choline chloride, 2 mM KCl, 1 mM CaCl2, 1 mM MgCl2, pH7.4) and incubated for 1 h in Na^+-free buffer. After replacing Na^+-free buffer with Na^+ gradient buffer (10 mM HEPES, 5 mM Tris, 140 mM NaCl, 2 mM KCl, 1 mM CaCl2, 1 mM MgCl2, pH7.4) containing 10 µM [^14C]AMG, the uptake of [^14C]AMG into the CHO-mock cells and CHO-SGLT1 and -SLGT2 cells was measured for 0.5, 1, 1.5, 2, and 3 h. After a predetermined incubation time, cells were washed three times with 200 µL of ice-cold Na^+-free buffer immediately after placing the plates on ice. Then, the cells were lysed with 10% SDS, and the cell lysates were mixed with Optiphase cocktail solution. Thereafter, the radioactivity of the cell lysates was measured using a liquid scintillation counter.
After 2 h, cells were washed three times with 200 µL of ice-cold Na^+-free buffer and the cells were lysed with 10% SDS (40 µL), followed by adding Optiphase cocktail solution (200 µL). The radioactivity of the cell lysates was measured using a liquid scintillation counter. The SGLT1 or SGLT2-mediated uptake of [^14C]AMG was calculated by the subtraction of the uptake rates of [^14C]AMG into the mock cells from those of the CHO-SGLT1 and -SLGT2 cells. In the inhibition studies, the percentages of the transport rate of AMG with or without SGLT2 inhibitors were calculated and the data were fitted to an inhibitory effect model. The IC50 (the concentration of the inhibitor to show half-maximal inhibition) values were calculated using Sigma Plot ver.10.0 (Systat Software, Inc.; San Jose, CA, USA).

Nc1ccc(C(=O)NCC(=O)O)cc1 [PAH, Para-aminohipuric acid]
Increase in probe substrate uptake in HEK293-OAT1 vs HEK293-mock cells ([1]; 0.1 μM [3H]PAH): 14.7 fold

CCOc1ccc(Cc2cc([C@@H]3O[C@H](CO)[C@@H](O)[C@H](O)[C@H]3O)ccc2Cl)cc1 [Dapagliflozin, dapagliflozin]
Time dependency of SGLT2 inhibition [2]: time-independent
Time after drug removal to recovery of SGLT2 activity to the control level [3]: 4 h
Substrate for OAT3 ([4]; 2 μM, HEK293-OAT3 vs mock, ± 20 μM probenecid): not substrates
Mode of inhibition on SGLT2 [5]: reversible and competitive
AUC(0-inf) [6]: 550 ± 144000 ng·h/mL
AUC(0-t) [6]: 480 ± 180 ng·h/mL
Cmax [6]: 275 ± 144 ng/mL
Kp [6]: 64.6 ± 31.8
logP [7]: 2.27
Duration of increased urinary glucose excretion post dose [8]: ≥ 18 h
Substrate for OAT1 ([1]; 2 μM, HEK293-OAT1 vs mock, ± 20 μM probenecid): not substrates
AUC72h [9]: 26.30 ± 3.34 μg∙h/g tissue

CO[C@H]1O[C@H](CO)[C@@H](O)[C@H](O)[C@H]1O [AMG, methyl a-D-glucopyranoside]
AMG uptake into CHO-SGLT1 cells relative to CHO-mock cells [10]: 42 fold

C[C@]12CC[C@@H]3c4ccc(OS(=O)(=O)O)cc4CC[C@H]3[C@@H]1CCC2=O [ES, Estrone-3-sulfate]
Increase in probe substrate uptake in HEK293-OAT3 vs HEK293-mock cells ([4]; 0.1 μM [3H]ES): 16.4 fold
